Peptide text beside a SMILES is read from it.
Columns and labels:
[1] = In vivo biodistribution (His-ELISA); parameters: species or system BALB/c nude mice; conditions: His-CY12-RP2, 25 and 100 mg/kg, tail vein
Protocol: In vivo biodistribution assay was conducted in BALB/c nude mice with melanoma tumor. Here we prepared 15 female BALB/c mice with subcutaneous melanoma tumor, and divided into three groups with each group of five. Mice were treated with His-CY12-RP2 by tail vein administration at various doses (25 mg/kg and 100 mg/kg). We collected at least 50 μL orbital blood samples by using capillary blood vessels at 6 h, 12 h, 24 h, 36 h, and 48 h, respectively. Five mice were used for the study of in vivo biodistribution of peptide. The organs including heart, liver, spleen, lung and kidney were collected after BALB/c nude mice were sacrificed at 48 h. The biodistribution of CY12-RP2 in blood and organs were measured using an ELISA kit (Shenzhen Ziker Biological Technology, Shenzhen, China) following the kit’s instructions.
Fig. S4: The inhibition of cells metastasis and invasion by CY12-RP2 can be […]
(A, B) The inhibition of CY12-RP2 on the migration capacity of melanoma cell lines was reversed by SKL2001 (A). Statistical analysis was performed to determine the migrated distance (B). The power field scale bar, 100 μm. (C, D) Effect of CY12-RP2 on the invasive ability of melanoma cell lines were reversed by SKL2001 (C).
Statistical analysis was performed to count the invaded cells (D). The power field scale bar, 100 μm. (E) Western blot assay was also performed to detect the proteins related to EMT and Wnt/β-catenin signaling pathway, including N-cadherin, Vimentin, snail, Dvl2, Phospho-β-catenin-S675, β-catenin, Phospho-GSK3β-Ser9 and GSK3β by CY12-RP2 with or without SKL2001 (50 μM). Data are presented as mean ± SD. *p < […]
(A) TUNEL analysis of apoptosis was conducted on orthotopic xenografts tumor sections using fluorescence staining. […] (B) Fluorescence staining of Ki67 was carried out on orthotopic xenograft tumor sections.
The power field scale bar, 100 μm. (C) Serum His-CY12-RP2 levels of the orthotopic xenografts mice treated by various dosage of CY12-RP2 were measured by His-ELISA kit. […]
kit. (E) Serum ALT, AST, TG, and γ-GT levels of the orthotopic xenografts model were measured by ELISA. […]

[2] = system: A375 cells; test: Wound healing (migration), A375; type: cell-based; conditions: wound healing, 0, 5, 25 μM, 24 h or 48 h
Protocol: A375 GFP, A875 GFP, A375 PDPN^−/−, and A875 PDPN^+/+ cells were all seeded in 12-well plates at a density of 5 × 10^5 cells/well. When the cells reached 100% confluence the next day, the straight wound was scraped in each cultured well with a 20 µL pipette tip. Then the cells were washed repeatedly with complete DMEM to remove the cellular debris, and the medium was changed to a low serum medium containing 0.05% FBS. The scratch-treated cells were subsequently cultured for an additional indicated time and imaged at 0 h, 12 h, 24 h and 48 h. Quantification of wound closure was accomplished by measuring the distance between the phase contrast images’ anterior edges of the contralateral surfaces using ImageJ software. As for peptide (CY12-RP2) function experiments, images of phase contrast for A375 GFP and A875 GFP cells were captured at 0 h before peptide administration. The cells were then treated with CY12-RP2 (0 μM, 5 μM, 25 μM) for 24 h or 48 h, and then images were acquired again. Handling of the experimental results were carried out as previously described.

CC(C)C[C@H](NC(=O)[C@H](Cc1ccc(O)cc1)NC(=O)[C@@H](N)[C@@H](C)O)C(=O)N[C@@H](CS)C(=O)N[C@H](C(=O)N[C@@H](C)C(=O)N[C@@H](CS)C(=O)N[C@@H](CC(=O)O)C(=O)N[C@@H](Cc1ccc(O)cc1)C(=O)N[C@H](C(=O)N[C@@H](Cc1c[nH]cn1)C(=O)N[C@@H](Cc1c[nH]cn1)C(=O)O)[C@@H](C)O)[C@@H](C)O [CY12-RP2] (H-TYLCTACDYTHH-OH; N-terminus and C-terminus assumed)
serum level after peak ([1]; serum, 6-48 h): moderately decreased progressively with time | time of peak serum level ([1]; serum, sampled 6, 12, 24, 36, 48 h): 6 h | organ distribution ([1]; tumor vs heart, liver, spleen, lung, kidney at 48 h): significant ability to target tumors compared to other organs | migration [2]: inhibited migration at the corresponding time both in A375 and A875 cells, but A375 cells were more susceptible
